Measured values taken from patent publication US11780839B2, “Compounds for treating Huntington's disease” (PTC THERAPEUTICS, INC., priority 2018, dated 2023).

System: Endogenous Huntingtin Protein
Assay: Endogenous Huntingtin Protein Assay (ELISA-based Meso Scale Discovery electrochemiluminescence)
Format: cell-based
Conditions: MSD electrochemiluminescence, Table 1
Procedure, shortened: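 Huntingtin was captured overnight at 4 °C on plates coated with 1 μg/mL MW1 (polyQ-expanded) or MAB2166 antibody and BSA-blocked. Detection used a rabbit monoclonal and then a SULFO-TAG goat anti-rabbit antibody (0.25 μg/mL, 1 h each, room temperature). Signal was read by electrochemiluminescence.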

Row | SMILES | IC50
1 | CC(C)NC1CCN(c2ncc(-c3ccc(-c4ncco4)cc3O)nn2)C1 (stereo not drawn) [Cpd 308, 5-(1,3-oxazol-2-yl)-2-(3-{3-[(propan-2-yl)amino]pyrrolidin-l-yl}-1,2,4-triazin-6-yl)phenol] | 100 to 500 nM
2 | CN1CC[C@H](Oc2ncc(-c3ccc(-c4cn[nH]c4)cc3O)nn2)C1 [Cpd 309, 2-(3-{[(3S)-1-methylpyrrolidin-3-yl]oxy}-1,2,4-triazin-6-yl)-5-(1H-pyrazol-4-yl)phenol] | > 500 nM
3 | CN1CCC[C@H]2CN(c3ncc(-c4ccc(-c5cn[nH]c5)cc4O)nn3)C[C@H]21 [Cpd 310, 2-{3-[(4aS,7aS)-1-methyloctahydro-6H-pyrrolo[3,4-b]pyridin-6-yl]-1,2,4-triazin-6-yl}-5-(1H-pyrazol-4-yl)phenol] | 100 to 500 nM
4 | CN1CCO[C@@H]2CN(c3ncc(-c4ccc(-c5cn[nH]c5)cc4O)nn3)C[C@@H]21 [Cpd 311, 2-{3-[(4aS,7aR)-4-methylhexahydropyrrolo[3,4-b][1,4]oxazin-6(2H)-yl]-1,2,4-triazin-6-yl}-5-(1H-pyrazol-4-yl)phenol] | 1000 to 3000 nM
5 | Oc1cc(-c2cn[nH]c2)ccc1-c1cnc(N2CCC(NC3COC3)C2)nn1 (stereo not shown) [Cpd 312, 2-(3-{3-[(oxetan-3-yl)amino]pyrrolidin-1-yl}-1,2,4-triazin-6-yl)-5-(1H-pyrazol-4-yl)phenol] | 1000 to 3000 nM
6 | Cn1cc(-c2ccc(-c3cnc(N4CCC(NC5COC5)C4)nn3)c(O)c2)cn1 (stereo not shown) [Cpd 313, 5-(1-methyl-1H-pyrazol-4-yl)-2-(3-{3-[(oxetan-3-yl)amino]pyrrolidin-1-yl}-1,2,4-triazin-6-yl)phenol] | 1000 to 3000 nM
7 | CC1(C)CC(Nc2ncc(-c3ccc(-c4ccnnc4)cc3O)nn2)CC(C)(C)N1 [Cpd 314, 5-(pyridazin-4-yl)-2-{3-[(2,2,6,6-tetramethylpiperidin-4-yl)amino]-1,2,4-triazin-6-yl}phenol] | ≤ 100 nM
8 | CC1(C)CC(Nc2ncc(-c3ccc(Nc4cccnc4)cc3O)nn2)CC(C)(C)N1 [Cpd 315, 5-[(pyridin-3-yl)amino]2-{3-[(2,2,6,6-tetramethylpiperidin-4-yl)amino]-1,2,4-triazin-6-yl}phenol] | ≤ 100 nM
9 | CC(C)(CF)NC1CCN(c2ncc(-c3ccc(-c4cn[nH]c4)cc3O)nn2)C1 (stereo not shown) [Cpd 316, 2-(3-{3-[(1-fluoro-2-methylpropan-2-yl)amino]pyrrolidin-1-yl}-1,2,4-triazin-6-yl)-5-(1H-pyrazol-4-yl)phenol] | ≤ 100 nM
10 | CCNC1CCN(c2ncc(-c3ccc(-c4cn[nH]c4)cc3O)nn2)C1 (stereo not shown) [Cpd 317, 2-{3-[3-(ethylamino)pyrrolidin-1-yl]-1,2,4-triazin-6-yl}-5-(1H-pyrazol-4-yl)phenol] | ≤ 100 nM
11 | CN(C)C1CCN(c2ncc(-c3ccc(-c4cn[nH]c4)cc3O)nn2)C1 (stereo not shown) [Cpd 318, 2-{3-[3-(dimethylamino)pyrrolidin-1-yl]-1,2,4-triazin-6-yl}-5-(1H-pyrazol-4-yl)phenol] | 100 to 500 nM
12 | Cn1ncc2cc(-c3ccc(-c4cnc(NC5CC(C)(C)NC(C)(C)C5)nn4)c(O)c3)ccc21 [Cpd 319, 5-(1-methyl-1H-indazol-5-yl)-2-{3-[(2,2,6,6-tetramethylpiperidin-4-yl)amino]-1,2,4-triazin-6-yl}phenol] | ≤ 100 nM
13 | CNC1CCN(c2ncc(-c3ccc(-c4nnn(C)n4)cc3O)nn2)C1 (stereo not shown) [Cpd 320, 2-{3-[3-(methylamino)pyrrolidin-1-yl]-1,2,4-triazin-6-yl}-5-(2-methyl-2H-tetrazol-5-yl)phenol] | 100 to 500 nM
14 | Cn1ncc2cc(-c3ccc(-c4cnc(NC5CC(C)(C)NC(C)(C)C5)nn4)c(O)c3)cnc21 [Cpd 321, 5-(1-methyl-1H-pyrazolo[3,4-b]pyridin-5-yl)-2-{3-[(2,2,6,6-tetramethylpiperidin-4-yl)amino]-1,2,4-triazin-6-yl}phenol] | ≤ 100 nM
15 | CC1(C)C[C@H](Nc2ncc(-c3ccc(-c4cn[nH]c4)cc3O)nn2)[C@H](F)C(C)(C)N1 [Cpd 322, 2-(3-{[(3S,4S)-3-fluoro-2,2,6,6-tetramethylpiperidin-4-yl]amino}-1,2,4-triazin-6-yl)-5-(1H-pyrazol-4-yl)phenol] | ≤ 100 nM
16 | CC1(C)C[C@@H](Nc2ncc(-c3ccc(-c4cn[nH]c4)cc3O)nn2)[C@@H](F)C(C)(C)N1 [Cpd 323, 2-(3-{[(3R,4R)-3-fluoro-2,2,6,6-tetramethylpiperidin-4-yl]amino}-1,2,4-triazin-6-yl)-5-(1H-pyrazol-4-yl)phenol] | ≤ 100 nM
17 | CC1(C)CC(Nc2ncc(-c3ccc(-n4nccn4)cc3O)nn2)C(F)C(C)(C)N1 (stereo not shown) [Cpd 324, 2-{3-[(3-fluoro-2,2,6,6-tetramethylpiperidin-4-yl)amino]-1,2,4-triazin-6-yl}-5-(2H-1,2,3-triazol-2-yl)phenol] | ≤ 100 nM
18 | CC1(NC2CCN(c3ncc(-c4ccc(-c5cn[nH]c5)cc4O)nn3)C2)COC1 (stereo not shown) [Cpd 325] | 100 to 500 nM
19 | Cc1cn(-c2ccc(-c3cnc(N4CCC(NC(C)C)C4)nn3)c(O)c2)cn1 (stereo not shown) [Cpd 326, 5-(4-methyl-1H-imidazol-1-yl)-2-(3-{3-[(propan-2-yl)amino]pyrrolidin-1-yl}-1,2,4-triazin-6-yl)phenol] | ≤ 100 nM
20 | Oc1cc(-c2cn[nH]c2)ccc1-c1cnc(N2C[C@H]3CNCC[C@H]3C2)nn1 [Cpd 327, 2-{3-[(3aR,7aR)-octahydro-2H-pyrrolo[3,4-c]pyridin-2-yl]-1,2,4-triazin-6-yl}-5-(1H-pyrazol-4-yl)phenol] | ≤ 100 nM
21 | Oc1cc(-c2cn[nH]c2)ccc1-c1cnc(N2CCNCC2)nn1 [Cpd 328, 2-[3-(piperazin-1-yl)-1,2,4-triazin-6-yl]-5-(1H-pyrazol-4-yl)phenol] | 100 to 500 nM
22 | C[C@H](CF)N[C@H]1CCN(c2ncc(-c3ccc(-c4cn[nH]c4)cc3O)nn2)C1 [Cpd 329, 2-{3-[(3S)-3-{[(2R)-1-fluoropropan-2-yl]amino}pyrrolidin-l-yl]-1,2,4-triazin-6-yl}-5-(1H-pyrazol-4-yl)phenol] | 100 to 500 nM
23 | CC(C)NC1CCN(c2ncc(-c3ccc(-c4ccc5c(cnn5C)c4)cc3O)nn2)C1 (stereo not shown) [Cpd 330, 5-(1-methyl-1H-indazol-5-yl)-2-(3-{3-[(propan-2-yl)amino]pyrrolidin-1-yl}-1,2,4-triazin-6-yl)phenol] | 1000 to 3000 nM
24 | CC(C)NC1CCN(c2ncc(-c3ccc(-n4ccnc4)cc3O)nn2)C1 (stereo not shown) [Cpd 331] | 100 to 500 nM
25 | Oc1cc(-c2cn[nH]c2)ccc1-c1cnc(N2CC[C@H]3NCC[C@@H]32)nn1 [Cpd 332, 2-{3-[(3aR,6aS)-hexahydropyrrolo[3,2-b]pyrrol-1(2H)-yl]-1,2,4-triazin-6-yl}-5-(1H-pyrazol-4-yl)phenol] | ≤ 100 nM
26 | OCCNC1CCN(c2ncc(-c3ccc(-c4cn[nH]c4)cc3O)nn2)C1 (stereo not shown) [Cpd 333, 2-(3-{3-[(2-hydroxyethyl)amino]pyrrolidin-1-yl}-1,2,4-triazin-6-yl)-5-(1H-pyrazol-4-yl)phenol] | ≤ 100 nM
27 | NC1CN(c2ncc(-c3ccc(-c4cn[nH]c4)cc3O)nn2)CC12COC2 (stereo not shown) [Cpd 334, 2-[3-(8-amino-2-oxa-6-azaspiro[3.4]octan-6-yl)-1,2,4-triazin-6-yl]-5-(1H-pyrazol-4-yl)phenol] | 1000 to 3000 nM
28 | Oc1cc(-c2cn[nH]c2)ccc1-c1cnc(N2CCC(NC3CCOCC3)C2)nn1 (stereo not shown) [Cpd 335, 2-(3-{3-[(oxan-4-yl)amino]pyrrolidin-1-yl}-1,2,4-triazin-6-yl)-5-(1H-pyrazol-4-yl)phenol] | ≤ 100 nM
